Reference: ChEMBL document CHEMBL1201862, “PubChem BioAssay data set” (2004)
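Dose response: 5 concentrations. Exposure: 48 h. Format: 96-well plates. Endpoint: linear interpolation; highest concentration if not reached. GI50: concentration for 50% inhibition of growth.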 The source made the active and inactive calls. Rule as the data show it: active = GI50 up to about 1.1 µM and inactive = higher.

How the values were obtained:
Experiment in all cases: growth of human tumour cells (NCI), 48 h
A549 = tested on: A549
ACHN = tested on: ACHN
EKVX = tested on: EKVX
HCC 2998 = tested on: HCC 2998
HCT-116 = tested on: HCT-116
HL-60 = tested on: HL-60
HOP-92 = tested on: HOP-92
HT-29 = tested on: HT-29
LOX IMVI = tested on: LOX IMVI
MOLT-4 = tested on: MOLT-4
Malme-3M = tested on: Malme-3M
NCI-H522 = tested on: NCI-H522
OVCAR-4 = tested on: OVCAR-4
RXF 393 = tested on: RXF 393
SK-MEL-28 = tested on: SK-MEL-28
SN12C = tested on: SN12C
SW-620 = tested on: SW-620
T47D = tested on: T47D
U-251 = tested on: U-251
UACC-257 = tested on: UACC-257

| SMILES | GI50 (A549) | GI50 (ACHN) | GI50 (EKVX) | GI50 (HCC 2998) | GI50 (HCT-116) | GI50 (HL-60) | GI50 (HOP-92) | GI50 (HT-29) | GI50 (LOX IMVI) | GI50 (MOLT-4) | GI50 (Malme-3M) | GI50 (NCI-H522) | GI50 (OVCAR-4) | GI50 (RXF 393) | GI50 (SK-MEL-28) | GI50 (SN12C) | GI50 (SW-620) | GI50 (T47D) | GI50 (U-251) | GI50 (UACC-257) |
| --- | --- | --- | --- | --- | --- | --- | --- | --- | --- | --- | --- | --- | --- | --- | --- | --- | --- | --- | --- | --- |
| O=P1(O)c2ccccc2Nc2cc(C(F)(F)F)ccc21 | > 100 µM (inactive) | > 100 µM (inactive) | > 100 µM (inactive) | > 100 µM (inactive) | > 100 µM (inactive) | > 100 µM (inactive) | > 100 µM (inactive) | > 100 µM (inactive) | > 100 µM (inactive) | > 100 µM (inactive) | > 100 µM (inactive) | > 100 µM (inactive) | > 100 µM (inactive) | > 100 µM (inactive) | > 100 µM (inactive) | > 100 µM (inactive) | > 100 µM (inactive) | > 100 µM (inactive) | > 100 µM (inactive) | > 100 µM (inactive) |
| CC(C)(C)NC(=O)[C@H]1CC[C@H]2[C@@H]3CC=C4NC(=O)CC[C@]4(C)[C@H]3CC[C@]12C | > 100 µM (inactive) | > 100 µM (inactive) | > 100 µM (inactive) | > 100 µM (inactive) | > 100 µM (inactive) | > 100 µM (inactive) | 97.9 µM (inactive) | > 100 µM (inactive) | > 100 µM (inactive) | > 100 µM (inactive) | > 100 µM (inactive) | 36.4 µM (inactive) | 50.1 µM (inactive) | > 100 µM (inactive) | > 100 µM (inactive) | > 100 µM (inactive) | > 100 µM (inactive) | > 100 µM (inactive) | > 100 µM (inactive) | 69.3 µM (inactive) |
| Cc1ccc(/C=C2\CCC/C(=C\c3ccc(O)c(CN4CCCCC4)c3)C2=O)cc1 | 9.4 µM (inactive) | 5.61 µM (inactive) | 12.6 µM (inactive) | 4.46 µM (inactive) | 2.74 µM (inactive) | 3.52 µM (inactive) | 9.71 µM (inactive) | 1.87 µM (inactive) | 3.18 µM (inactive) | 3.6 µM (inactive) | 17.3 µM (inactive) | 3.85 µM (inactive) | 11.1 µM (inactive) | 14.1 µM (inactive) | 15.7 µM (inactive) | 9.82 µM (inactive) | 3.6 µM (inactive) | 13.4 µM (inactive) | 5.27 µM (inactive) | 5.09 µM (inactive) |
| CCP(=O)(OC)C1=CCN(C(=O)OCC[Si](C)(C)C)CC1 (stereo not given) | > 100 µM (inactive) | > 100 µM (inactive) | > 100 µM (inactive) | > 100 µM (inactive) |  | > 100 µM (inactive) | > 100 µM (inactive) | > 100 µM (inactive) | > 100 µM (inactive) | > 100 µM (inactive) | > 100 µM (inactive) | > 100 µM (inactive) | > 100 µM (inactive) | > 100 µM (inactive) | > 100 µM (inactive) |  | > 100 µM (inactive) | > 100 µM (inactive) | > 100 µM (inactive) | > 100 µM (inactive) |
| COc1ccc(C2=Nn3c(nc4sc(C)c(C)c4c3=O)SC2)cc1 | > 100 µM (inactive) | > 100 µM (inactive) | > 100 µM (inactive) | > 100 µM (inactive) | > 100 µM (inactive) | > 100 µM (inactive) | > 100 µM (inactive) | > 100 µM (inactive) | > 100 µM (inactive) | > 100 µM (inactive) | > 100 µM (inactive) | > 100 µM (inactive) | > 100 µM (inactive) | > 100 µM (inactive) | > 100 µM (inactive) | > 100 µM (inactive) | > 100 µM (inactive) | > 100 µM (inactive) | > 100 µM (inactive) | > 100 µM (inactive) |
| CCOc1cc(NC(C)=O)ccc1C(=O)NNS(=O)(=O)c1ccc(NC(C)=O)cc1 | 72.8 µM (inactive) | > 100 µM (inactive) | 56 µM (inactive) | > 100 µM (inactive) | 44.1 µM (inactive) | 22.8 µM (inactive) | 61.9 µM (inactive) | 47.8 µM (inactive) | 55.7 µM (inactive) | 37.2 µM (inactive) | 86.7 µM (inactive) | 37.4 µM (inactive) | 73.6 µM (inactive) | 76.7 µM (inactive) | 99.1 µM (inactive) | 46.5 µM (inactive) | 39.2 µM (inactive) | > 100 µM (inactive) |  | > 100 µM (inactive) |
| CN(C)c1ccc(/C=C2\N=C(c3ccccc3)N(c3nc4ccc(Sc5ccccc5)cc4[nH]3)C2=O)cc1 | 41.5 µM (inactive) | 81.8 µM (inactive) | 40.7 µM (inactive) | 17.4 µM (inactive) | 36.3 µM (inactive) | 6.61 µM (inactive) | 94.4 µM (inactive) | 32.4 µM (inactive) | 45.2 µM (inactive) | 30.2 µM (inactive) | 99.8 µM (inactive) | 29.2 µM (inactive) | 40.3 µM (inactive) | 50.2 µM (inactive) | 57.1 µM (inactive) | 45.4 µM (inactive) | 34.6 µM (inactive) | 44 µM (inactive) | 47.9 µM (inactive) | 24.3 µM (inactive) |
| COC(=O)c1csc([C@@H](OC(=O)[C@H](C)[C@H](CCCC(C)(Cl)Cl)OC(=O)c2csc([C@H](O)CO)n2)C(C)C)n1 | 17.9 µM (inactive) | 13.1 µM (inactive) | 17.1 µM (inactive) | 10.2 µM (inactive) |  | 17.9 µM (inactive) | 10.7 µM (inactive) | 17.6 µM (inactive) | 10.5 µM (inactive) | 16.3 µM (inactive) | 17.3 µM (inactive) | 16.8 µM (inactive) | 10 µM (inactive) | 1.89 µM (inactive) | 11.8 µM (inactive) | 1.99 µM (inactive) | 17.9 µM (inactive) | 20.7 µM (inactive) | 17.8 µM (inactive) | 11 µM (inactive) |
| O=c1ccc2cc(O)c(O)cc2o1 [ESCULETIN] | > 100 µM (inactive) | > 100 µM (inactive) | > 100 µM (inactive) | > 100 µM (inactive) | > 100 µM (inactive) | > 100 µM (inactive) | > 100 µM (inactive) | > 100 µM (inactive) | > 100 µM (inactive) | > 100 µM (inactive) | > 100 µM (inactive) | > 100 µM (inactive) | 97.3 µM (inactive) | > 100 µM (inactive) | > 100 µM (inactive) | > 100 µM (inactive) | > 100 µM (inactive) | > 41.8 µM (inactive) | > 100 µM (inactive) | > 100 µM (inactive) |
| COc1cc(C2c3cc4c(cc3[C@@H](Nc3ccc(C#N)cc3)C3COC(=O)[C@H]23)OCO4)cc(OC)c1O (stereo not given in full) | 0.166 µM (active) | 0.184 µM (active) | 16.7 µM (inactive) | 0.0693 µM (active) | 2.01 µM (inactive) | 0.143 µM (active) | 1.02 µM (active) | 3.05 µM (inactive) | 1.08 µM (active) | 0.274 µM (active) | 1.29 µM (inactive) | 1.88 µM (inactive) | 3.43 µM (inactive) | 1.41 µM (inactive) | 6.97 µM (inactive) | 1.05 µM (active) | 0.889 µM (active) | 0.828 µM (active) | 1.43 µM (inactive) | 7.26 µM (inactive) |
| Nc1c2c(nc3ccccc13)-c1ccccc1NCCC2 | 47.4 µM (inactive) | 36.6 µM (inactive) | 38.3 µM (inactive) | 13.9 µM (inactive) | 23.3 µM (inactive) | 18.4 µM (inactive) | 13.9 µM (inactive) | 23 µM (inactive) | 16.8 µM (inactive) | 24.6 µM (inactive) | 18 µM (inactive) | 26.9 µM (inactive) | 47.3 µM (inactive) | 16.1 µM (inactive) | 18.2 µM (inactive) | 33.3 µM (inactive) | 23.4 µM (inactive) | 26.1 µM (inactive) | 32.2 µM (inactive) | 13.6 µM (inactive) |
| CCOC(=O)/C=C(\C(=O)OCC)n1ccc(=O)n(Cc2cn(CCCCOC(C)=O)nn2)c1=O | 21.9 µM (inactive) | 5.33 µM (inactive) | 13 µM (inactive) | 21.6 µM (inactive) | 11.2 µM (inactive) | 0.26 µM (active) | 2.55 µM (inactive) | 8.05 µM (inactive) | 14.9 µM (inactive) | 2.4 µM (inactive) | 2.18 µM (inactive) | 1.72 µM (inactive) | 19.4 µM (inactive) | 12 µM (inactive) | 8.17 µM (inactive) | 15.2 µM (inactive) | 3.14 µM (inactive) | 5.36 µM (inactive) | 16.1 µM (inactive) | 17.4 µM (inactive) |
| CC(C)(C)n1c(=O)n(C(=O)C(Cl)(Cl)Cl)n(C(=O)C(Cl)(Cl)Cl)c1=O | > 100 µM (inactive) | > 100 µM (inactive) | > 100 µM (inactive) | > 100 µM (inactive) | > 100 µM (inactive) | > 100 µM (inactive) | > 100 µM (inactive) | > 100 µM (inactive) | > 100 µM (inactive) | > 100 µM (inactive) | > 100 µM (inactive) | > 100 µM (inactive) | > 100 µM (inactive) | > 100 µM (inactive) | > 100 µM (inactive) | > 100 µM (inactive) | > 100 µM (inactive) | > 100 µM (inactive) | > 100 µM (inactive) | > 100 µM (inactive) |
| CCCCC(C#N)(OP1(=O)OC(c2ccccc2)C(C)N1C)c1ccccc1 (stereo not given) | 20.1 µM (inactive) | 19 µM (inactive) | 22.5 µM (inactive) | 15.1 µM (inactive) | 16.2 µM (inactive) | 14.4 µM (inactive) | 12.4 µM (inactive) | 18.1 µM (inactive) | 18.9 µM (inactive) | 15.7 µM (inactive) | 15.6 µM (inactive) | 17.2 µM (inactive) |  | 16.6 µM (inactive) | 16.3 µM (inactive) | 16.7 µM (inactive) | 16.4 µM (inactive) | 21.3 µM (inactive) | 17.3 µM (inactive) | 18.3 µM (inactive) |
